Experimental findings from US20160280670A1, “NOVEL COMPOUNDS FOR REGENERATION OF TERMINALLY-DIFFERENTIATED CELLS AND TISSUES” (ACOUSIA THERAPEUTICS GMBH, priority 2013, published 2016) are described below.

The structures appear in SMILES notation.

This assay concerns inner ear progenitor cells from the postnatal sensory organ of the mouse (differentiated sensory epithelial patches, "mini ears"). In words: Screening assay: EdU proliferation in differentiated inner ear progenitor sphere patches ("mini ears"). The class given is cell-based. Particulars: test item 5 μM for 96 h. The source says: A screening assay was employed according to an experimental protocol that enables the isolation of inner ear progenitor cells from the postnatal sensory organ of the mouse preparations in vitro. These isolated progenitors generate typical spheres that express a comprehensive set of marker genes that define the early developing sensory epithelium in the progenitor cell state. Under appropriate conditions these spheres can differentiate into epithelial patches that express marker genes that are characteristic of differentiating hair cells and supporting cells as found in the native organ of Corti. These differentiated sensory epithelial patches, tagged “mini ears”, can be generated in sufficient numbers for screening purposes in a low-throughput format. For an appropriate read-out, dedifferentiation was detected with three parameters: (i) labelling of Sox2 expression (Sox2=transcription factor SRY (sex determining region Y-box 2), (ii) an increase in the incorporation of EdU indication proliferation (EdU=thymidine analogue 5-Ethynyl2′-deoxyuridine), and (iii) labelling using the hair cell marker Myosin VIIA.
Compounds were screened at a standard concentration of 5 μM. […]
For ease of comparison the number of EdU positive cells was normalized to the DMSO only condition. Thus, the proliferation activity is expressed as “fold EdU positive cells”. […]

In the case of `C[C@](N)(Cc1c[nH]c2ccccc12)c1nc(C(=O)NC2CCCCC2)co1.Cl` [Compound 13, (S)-2-(2-amino-1-(1H-indol-3-yl)propan-2-yl)-N-cyclohexyloxazole-4-carboxamide hydrochloride], the “Mean percentage of EdU positive cells” value (EdU for the last 5 hours, patches after 14 days differentiation) is 3.59%. In addition, where the note is “number of EdU positive cells normalized to DMSO only condition, hydrochloride”, the “Fold EdU positive re DMSO (proliferation activity, "fold EdU positive cells")” value is 2.04 fold.
